The values below come from patent publication US6635621B1, “Cysteine protease inhibitors” (Naeja Pharmaceutical Inc., priority 1999, dated 2003).

What is called IC50 is the midpoint of a concentration-inhibition curve. A low value points to higher potency. As usually defined, the melting point is the temperature, or range, at which the solid turns liquid.

The target in series [1] is cathepsin S (Homo sapiens, UniProt P25774). Kind of series: In vitro assay for inhibition of cathepsin S. Format: biochemical. As to conditions: r cathepsin S, substrate N-CBZ-Val-Val-Arg-AMC, pH 6.5, 10 min incubation at room temperature. The protocol: In Vitro Assay Procedure for Cathepsin S
To a 170 μl of enzyme-buffer mixture (enzyme: r cathepsin S, diluted to give approximate 30 F units/min, buffer: 100 mM sodium phosphate, 1 mM EDTA, 5 mM DTT, 0.01% Brij, pH 6.5) a 10 μL of inhibitor (dissolved in DMSO) was added. After 10 min of incubation at room temperature, a 20 μl of 1.2 mM substrate (N-CBZ-Val-Val-Arg-AMC, dissolved in DMSO) was added to initiate reaction. Reading is followed up for 10 min at the fluoroscan II plate reader (excitation at 380 nm emission at 460 nm).
(§1) A plot of percentage of inhibition vs inhibitor concentration is obtained, and IC50 is determined using a linear regression calculations (concentration of inhibitor which will give 50% inhibition).

The target of series [2] is rat cathepsin L (Rattus norvegicus, UniProt P07154). Description: In vitro assay for inhibition of cathepsin L. Format: biochemical. The conditions noted are these: r rat cathepsin L, substrate N-CBZ-Phe-Arg-AMC, pH 5.0, 10 min incubation at room temperature. The protocol:
In Vitro Assay Procedure for Cathepsin L
To a 170 μl of enzyme-buffer mixture (enzyme: r rat cathepsin L, diluted to give approximate 15 F units/min, buffer: 58.8 mM sodium citrate, 1.18 mM EDTA, 235 mM sodium chloride, 5 mM […], pH 5.0) a 10 μL of inhibitor (dissolved in DMSO) was added. After 10 min of incubation at room temperature, a 20 μl of 1 mM substrate (N-CBZ-Phe-Arg-AMC, dissolved in DMSO) was added to initiate reaction. Reading is followed up for 10 min at the fluoroscan reader (excitation at 380 nm emission at 460 nm).
as §1

For series [3], the target named is T1, cathepsin K (Homo sapiens, UniProt P43235).
T1 sequence (P43235 115-329): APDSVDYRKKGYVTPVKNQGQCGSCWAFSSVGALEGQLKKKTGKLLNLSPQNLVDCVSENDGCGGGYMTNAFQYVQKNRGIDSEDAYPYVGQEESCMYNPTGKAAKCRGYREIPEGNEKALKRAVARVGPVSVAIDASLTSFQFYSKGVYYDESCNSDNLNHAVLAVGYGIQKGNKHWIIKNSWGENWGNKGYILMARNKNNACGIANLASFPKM
Description: In vitro assay for inhibition of cathepsin K. Format: biochemical. As to conditions: r cathepsin K, substrate N-CBZ-Phe-Arg-AMC, pH 5.5, 10 min incubation at room temperature. On the procedure:
In Vitro Assay Procedure for Cathepsin K
To a 170 μl of enzyme-buffer mixture (enzyme: r cathepsin K, diluted to give approximate 30 F units/min, buffer: 100 mM sodium acetate, 5 mM EDTA, 20 mM L-cysteine, 0.01% Brij, pH 5.5) a 10 μL of inhibitor (dissolved in DMSO) was added. After 10 min of incubation at room temperature, a 20 μl of 2.7 mM substrate (N-CBZ-Phe-Arg-AMC, dissolved in DMSO) was added to initiate reaction. Reading is followed up for 10 min at the fluoroscan II plate reader (excitation at 380 nm emission at 460 nm).
as §1

Series [4] deals with rat cathepsin B (Rattus norvegicus, UniProt P00787). Description: In vitro assay for inhibition of cathepsin B. Format: biochemical. As to conditions: r rat cathepsin B, substrate N-CBZ-Phe-Arg-AMC, pH 5.1, 10 min incubation at room temperature. On the procedure:
In Vitro Assay Procedure for Cathepsin B
The compounds of formula I were tested for inhibition of cathepsin B using the known method (A. J. Barret et al., Biochem. J. 1982, 201, 189-198). To a 170 μl of enzyme-buffer mixture (enzyme: r rat cathepsin B, diluted to give approximate 10 F units/min, buffer: 56 mM sodium acetate, 1.124 mM EDTA, 10 mM DTT, pH 5.1) a 10 μL of inhibitor (dissolved in DMSO) was added. After 10 min of incubation at room temperature, a 20 μl of 5 mM substrate (N-CBZ-Phe-Arg-AMC, dissolved in DMSO) was added to initiate reaction. Reading is followed up for 10 min at the fluoroscan reader (excitation at 380 nm emission at 460 nm).
as §1

Sequence of cathepsin S (P25774 115-331, species assumed): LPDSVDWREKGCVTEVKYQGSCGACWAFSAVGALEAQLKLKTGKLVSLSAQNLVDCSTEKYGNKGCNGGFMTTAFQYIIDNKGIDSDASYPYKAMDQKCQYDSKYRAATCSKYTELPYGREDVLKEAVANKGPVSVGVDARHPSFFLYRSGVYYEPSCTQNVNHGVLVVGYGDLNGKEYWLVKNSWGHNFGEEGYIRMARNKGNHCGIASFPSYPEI
Sequence of rat cathepsin B (P00787 80-333): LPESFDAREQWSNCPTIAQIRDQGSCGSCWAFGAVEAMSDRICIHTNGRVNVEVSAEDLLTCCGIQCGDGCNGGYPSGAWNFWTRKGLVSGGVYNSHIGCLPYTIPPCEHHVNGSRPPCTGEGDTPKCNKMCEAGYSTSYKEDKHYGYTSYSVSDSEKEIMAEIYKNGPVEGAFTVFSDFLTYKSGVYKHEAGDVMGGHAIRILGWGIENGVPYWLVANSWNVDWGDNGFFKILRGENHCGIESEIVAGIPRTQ
Sequence of rat cathepsin L (P07154 114-334): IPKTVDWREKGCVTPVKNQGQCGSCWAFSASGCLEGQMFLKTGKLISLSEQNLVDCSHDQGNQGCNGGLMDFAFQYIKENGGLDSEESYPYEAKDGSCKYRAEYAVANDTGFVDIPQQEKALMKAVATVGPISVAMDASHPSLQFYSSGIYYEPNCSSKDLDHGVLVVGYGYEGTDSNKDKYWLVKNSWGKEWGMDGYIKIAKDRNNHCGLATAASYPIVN

`NC=C(NC(=O)[C@H](Cc1ccccc1)NC(=O)OCc1ccccc1)C(N)=O` [Example 3, 2-(2S-2-Benzyloxycarbonylamino-2-benzyl-acetamido)-3-amino-acrylamide]: the melting point fell in the range of 127 to 135 °C. In series [1], this compound showed an IC50 of 0.26 µM. The IC50 in series [2] worked out at 0.0055 µM. Besides, half-maximal inhibition in series [3] (IC50) was put at 0.23 µM. The same compound came in with a half-maximal inhibitory concentration (IC50) in series [4] of 1.42 µM.

`NC=C(NC(=O)[C@H](CC1CCCCC1)NC(=O)OCc1ccccc1)C(N)=O` [Example 2, 2-(2S-2-Benzyloxycarbonylamino-2-cyclohexylmethyl-acetamido)-3-amino-acrylamide] yielded a melting point of 80 to 85 °C. For the same compound, the IC50 in series [1] amounted to 0.026 µM. Besides, the IC50 in series [2] worked out at 0.072 µM. In addition, inhibition in series [3] was half-maximal at 1.78 µM (IC50). Besides, inhibition in series [4] was half-maximal at 1.17 µM (IC50).

Regarding `CC(=O)N/C=C(/NC(=O)[C@H](CC(C)C)NC(=O)OCc1ccccc1)C(N)=O` [Example 10a, (2E)-(2S-2-Benzyloxycarbonylamino-2-isopropylmethyl-acetamido)-3-acetamido-acrylamide], the melting point lay in the range of 73 to 76 °C. In addition, the IC50 in series [1] came out at 0.013 µM. In addition, in series [2], half-maximal inhibition (IC50) required 8.62 µM. Also, in series [3], the concentration for half-maximal inhibition (IC50) came out at 1.42 µM. In addition, in series [4], half-maximal inhibition (IC50) was put at 45.2 µM.

For `CC(C)C[C@H](NC(=O)OCc1ccccc1)C(=O)N/C(=C\N1CCN(C)CC1)C(N)=O` [Example 17, 2-(2S-2-Benzyloxycarbonylamino-2-isopropylmethyl-acetamido)-3-(4-methylpiperazino)-acrylamide], the melting point fell in the range of 93.5 to 95 °C. Further, in series [1], the IC50 is 0.18 µM. This compound also showed an IC50 in series [2] of 0.23 µM. The compound further registered a 50% inhibitory concentration (IC50) in series [3] of 0.019 µM. The IC50 in series [4] is 1.9 µM.

Take `CC(=O)N/C=C(/NC(=O)[C@H](CC1CCCCC1)NC(=O)OCc1ccccc1)C(N)=O` [Example 19a, (2E)-(2S-2-Benzyloxycarbonylamino-2-cyclohexymethyl-acetamido)-3-acetamido-acrylamide]: the melting point is 140 to 142 °C. In series [1], this compound registered an IC50 of 1.86 µM. This compound registered a half-maximal inhibitory concentration (IC50) in series [2] of over 58 µM. Moreover, the concentration for half-maximal inhibition (IC50) in series [3] is over 58 µM. The concentration for half-maximal inhibition (IC50) in series [4] is over 58 µM.

`CC(C)C[C@H](NC(=O)OCc1ccccc1)C(=O)N/C(=C/O)C(N)=O` [Example 15, 2-(2S-2-Benzyloxycarbonylamino-2-isopropylmethyl-acetamido)-3-hydroxy-acrylamide] yielded a melting point of 105 to 115 °C. In series [1], this compound came in with a half-inhibitory concentration (IC50) of 0.075 µM. In series [2], the IC50 amounted to 0.17 µM. The compound further had a half-inhibitory concentration (IC50) in series [3] of 0.018 µM. Moreover, in series [4], the midpoint of inhibition, the IC50, lay at 9.5 µM.

`NC=C(NC(=O)[C@H](Cc1ccccc1)NC(=O)CCc1ccccc1)C(N)=O` [Example 4, 2-[2S-2-(3-Phenylpropionoyl)amino-2-benzyl-acetamido]-3-amino-acrylamide] registered a melting point of 75 to 80 °C. In addition, the IC50 in series [1] is 0.0087 µM. The IC50 in series [2] was 0.015 µM. This compound also had an IC50 in series [3] of 1.2 µM. The IC50 in series [4] is 2.63 µM.

For the compound `NC(=O)C(NC(=O)[C@H](Cc1ccccc1)NC(=O)CCc1ccccc1)C(O)O` (stereo partly drawn) [Example 14, 2-[2S-2-(3-Phenylpropionoylamino)-2-benzyl-acetamido]-3,3-dihydroxy-propionamide], the melting point lay within 105 to 110 °C. For the same compound, it took 0.004 µM to reach half-maximal inhibition in series [1] (IC50). This compound also had an IC50 in series [2] of 0.004 µM. In series [3], the 50% inhibitory concentration (IC50) turned out to be 1.13 µM. This compound displayed a concentration for half-maximal inhibition (IC50) in series [4] of 0.98 µM.

`CC(C)C[C@H](NC(=O)OCc1ccccc1)C(=O)NC(=CN)C(N)=O` [Example 1, 2-(2S-2-Benzyloxycarbonylamino-2-isopropylmethyl-acetamido)-3-amino-acrylamide]: the melting point fell in the range of 80 to 90 °C. The compound further had an IC50 in series [1] of 0.069 µM. The compound also came in with an IC50 in series [2] of 0.094 µM. In series [3], half-maximal inhibition (IC50) required 0.011 µM. This compound yielded an IC50 in series [4] of 4.35 µM.

For the compound `CC(C)C[C@H](NC(=O)OCc1ccccc1)C(=O)NC(=CNCc1ccccc1)C(N)=O` [Example 5, 2-(2S-2-Benzyloxycarbonylamino-2-isopropylmethyl-acetamido)-3-benzylamino-acrylamide], the melting point is 115 to 120 °C. In series [1], this compound registered an IC50 of 0.061 µM. The compound further yielded an IC50 in series [2] of 0.064 µM. Moreover, half-maximal inhibition in series [3] (IC50) was put at 0.0031 µM. The compound also returned an IC50 in series [4] of 2.28 µM.

In turn, `CC(C)C[C@H](NC(=O)OCc1ccccc1)C(=O)N/C(=C\N1CCCCC1)C(N)=O` [Example 9, 2-(2S-2-Benzyloxycarbonylamino-2-isopropylmethyl-acetamido)-3-piperidino-acrylamide] displayed a melting point of 99 to 103 °C. This compound gave an IC50 in series [1] of 0.05 µM. The compound further displayed an IC50 in series [2] of 0.062 µM. In series [3], this compound showed an IC50 of 0.014 µM. The IC50 in series [4] turned out to be 0.89 µM.

The compound `CC(C)C[C@H](NC(=O)OCc1ccccc1)C(=O)NC(C(N)=O)C(O)O` (stereo partly drawn) [Example 11, 2-(2S-2-Benzyloxycarbonylamino-2-isopropylmethyl-acetamido)-3,3-dihydroxy-propionamide] gave a melting point of 86 to 90 °C. The half-inhibitory concentration (IC50) in series [1] was found to be 0.015 µM. In series [2], the midpoint of inhibition, the IC50, lay at 0.11 µM. Further, the concentration for half-maximal inhibition (IC50) in series [3] was 0.014 µM. The same compound registered an IC50 in series [4] of 2.4 µM.

`CC(C)C[C@H](NC(=O)OCc1ccccc1)C(=O)NC(=CN1CCOCC1)C(N)=O` [Example 6, 2-(2S-2-Benzyloxycarbonylamino-2-isopropylmethyl-acetamido)-3-(morpholin-4-yl)-acrylamide]: the melting point lay within 120 to 130 °C. In series [1], 0.05 µM corresponded to half-maximal inhibition (IC50). In series [2], this compound had an IC50 of 0.075 µM. In series [3], this compound came in with an IC50 of 0.003 µM. This compound also returned an IC50 in series [4] of 0.37 µM.

As for `CC(C)C[C@H](NC(=O)OCc1ccccc1)C(=O)NC(=CNc1ccccc1)C(N)=O` [Example 8, 2-(2S-2-Benzyloxycarbonylamino-2-isoproplmethyl-acetamido)-3-phenylamino-acrylamide], the melting point was in the range of 199 to 200 °C. The compound further registered an IC50 in series [1] of 6.9 µM. The compound also showed an IC50 in series [2] of 2.36 µM. Also, half-maximal inhibition in series [3] (IC50) was put at 0.33 µM. For the same compound, the midpoint of inhibition in series [4], the IC50, lay at 37.1 µM.

Regarding `CC(C)C[C@H](NC(=O)OCc1ccccc1)C(=O)N/C(=C\N1CCC(NC(=O)OC(C)(C)C)C1)C(N)=O` (stereo partly drawn) [Example 18, 2-(2S-2-Benzyloxycarbonylamino-2-isopropylmethyl-acetamido)-3-(3-tert-butoxycarbonylamino-pyrrolidino)-acrylamide], the melting point is 140 to 142 °C. The compound further displayed an IC50 in series [1] of 0.039 µM. The compound further displayed an IC50 in series [2] of 0.12 µM. The compound further returned a concentration for half-maximal inhibition (IC50) in series [3] of 0.0096 µM. It took 1.9 µM to reach half-maximal inhibition in series [4] (IC50).

With `CC(C)C[C@H](NC(=O)OCc1ccccc1)C(=O)NC(=CNCCO)C(N)=O` [Example 7, 2-(2S-2-Benzyloxycarbonylamnino-2-isopropylmnethyl-acetamido)-3-(2-hydroxyethylamnino)-acrylamide], the melting point lay in the range of 89 to 92 °C. In series [1], this compound showed a half-inhibitory concentration (IC50) of 0.18 µM. Moreover, the IC50 in series [2] amounted to 0.23 µM. In addition, half-maximal inhibition in series [3] (IC50) was put at 0.012 µM. Also, the IC50 in series [4] is 1.96 µM.

For the compound `CC(C)C[C@H](NC(=O)OCc1ccccc1)C(=O)N/C(=C/N1CCOCC1)C(=O)c1ccccc1` [Example 27, 2-[2S-(Benzyloxycarbonylamino)-2-isopropylmethyl-acetamido]-2-(morpholino-1-methylenyl)-acetophenone], the IC50 in series [1] came to 52.2 µM; in series [2], 4.24 µM; in series [3], 0.14 µM; in series [4] it was 32.3 µM.
